Assays:
[1] = test system: Wistar rats; experiment: 90-day repeated dose oral toxicity study (OECD TG 408); type: in vivo, rat; conditions: for NOAEL, 90-day repeated-dose toxicity: OECD 408 v 2018, oral gavage
From the text: Healthy and specific pathogen-free male and female (non-pregnant and nulliparous) Wistar Crl: WI(Han) rats were obtained from Charles River Laboratories (Germany). […] Upon arrival at BSL BIOSERVICE, the animals underwent an acclimatisation period of at least 5 days, and they were approximately 15–16 weeks old at the onset of the treatment period.

[2] = test system: Wistar rats; experiment: Higher-tier studies taken together (OECD TG 408, 414, 421/422, 443): NOAEL
Experimental: All in vivo studies were conducted as oral gavage studies, selecting the oral route as most appropriate route of administration to reflect the worst-case exposure scenario. […] The OECD TG 443 included mating of first generation (F1) offspring to produce a second generation (F2), and the DIT and DNT cohorts.

[3] = in vivo; conditions: for concentration at 1 h / Tmax / AUC(0-t) / Cmax: Wistar, rat, serum; for concentration at 1 h: oral; for Tmax / AUC(0-t) / Cmax: po; for AUC(0-t) / Cmax / AUC0-1 h/AUC0–t / C1h/Cmax / Clast / tlast: parent compound
Method in brief: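 Test item given by oral gavage at 500 and 1000 mg/kg bw to 10 males and 10 females per dose group, following OECD TG 417. Serum parent parabens and the metabolite p-hydroxybenzoic acid were measured by […] (LOQ 10 ng/mL parabens, 130 ng/mL p-hydroxybenzoic acid). Faeces and urine were not analysed.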

[4] = test system: bacteria; conditions: cited from earlier work
[5] = test system: mammalian cells; conditions: cited from earlier work
[6] = test system: rats; conditions: read-across from MP; ref ECHA dissemination portal; cited from earlier work

SMILES: CCCOC(=O)c1ccc(O)cc1 [Propyl paraben, Propyl 4-hydroxybenzoate]
- NOAEL, 90-day repeated-dose toxicity [1]: NOAEL: 1000 (OECD 408; v 2018) mg/kg body weight/day
- NOAEL, 90-day repeated-dose toxicity ([1]; listed as propyl paraben): 1000 mg/kg body weight/day
- Accessory sex organs HP ([1]; P0): NAE / NAE
- Adrenals HP ([1]; P0): NAE / NAE
- Adrenals weight ([1]; P0): NAE / NAE
- Brain weight ([1]; P0): NAE / NAE
- Cervix HP ([1]; P0): NAE / NAE
- Coagulating gland HP ([1]; P0): NAE / NAE
- Coagulating gland weight ([1]; P0): NAE / NAE
- Epididymis HP ([1]; P0): NAE / NAE
- Epididymis weight ([1]; P0): NAE / NAE
- Liver weight ([1]; P0): NAE / NAE
- Mammary gland HP; females ([1]; P0): NAE / NAE
- Mammary gland HP; males ([1]; P0): NAE / NAE
- Oestrus cyclicity ([1]; P0): NAE / NAE
- Ovary HP ([1]; P0): NAE / NAE
- Ovary weight ([1]; P0): NAE / NAE
- Oviduct HP ([1]; P0): NAE / NAE
- Pituitary HP ([1]; P0): NAE / NAE
- Pituitary weight ([1]; P0): NAE / NAE
- Prostate HP ([1]; P0): NAE / NAE
- Prostate weight ([1]; P0): NAE / NAE
- Seminal vesicles HP ([1]; P0): NAE / NAE
- Seminal vesicles weight ([1]; P0): NAE / NAE
- Testis HP ([1]; P0): NAE / NAE
- Testis weight ([1]; P0): NAE / NAE
- Thyroid HP ([1]; P0): NAE / NAE
- Thyroid stimulating hormone level ([1]; P0): NAE / NAE
- Thyroid weight ([1]; P0): NAE / NAE
- Triiodothyronine / thyroxine level ([1]; P0): NAE / NAE
- Uterus HP (with cervix) ([1]; P0): NAE / NAE
- Uterus weight (with cervix) ([1]; P0): NAE / NAE
- Vagina HP ([1]; P0): NAE / NAE
- Vaginal smears ([1]; P0): NAE / NAE
- Signs of systemic toxicity ([1]; sub-chronic (90-day) oral application): did not induce any signs of systemic toxicity
- NOAEL, repeated-dose toxicity and DART, all higher-tier studies ([2]; limit dose, oral gavage): 1000 mg/kg bw/day
- NOAEL: Accessory sex organs HP ([2]; over all higher-tier studies): 1000 / 1000 mg/kg bw/day
- NOAEL: Adrenals HP ([2]; over all higher-tier studies): 1000 / 1000 mg/kg bw/day
- NOAEL: Adrenals weight ([2]; over all higher-tier studies): 1000 / 1000 mg/kg bw/day
- NOAEL: Age at balano-preputial separation ([2]; over all higher-tier studies): 1000 / 1000 mg/kg bw/day
- NOAEL: Age at vaginal opening ([2]; over all higher-tier studies): 1000 / 1000 mg/kg bw/day
- NOAEL: Anogenital distance ([2]; over all higher-tier studies): 1000 / 1000 mg/kg bw/day
- NOAEL: Auditory startle ([2]; over all higher-tier studies): 1000 / 1000 mg/kg bw/day
- NOAEL: Brain HP ([2]; over all higher-tier studies): 1000 / 1000 mg/kg bw/day
- NOAEL: Brain morphometric evaluation ([2]; over all higher-tier studies): 1000 / 1000 mg/kg bw/day
- NOAEL: Brain weight ([2]; over all higher-tier studies): 1000 / 1000 mg/kg bw/day
- NOAEL: Cervix HP ([2]; over all higher-tier studies): 1000 / 1000 mg/kg bw/day
- NOAEL: Coagulating gland HP ([2]; over all higher-tier studies): 1000 / 1000 mg/kg bw/day
- NOAEL: Coagulating gland weight ([2]; over all higher-tier studies): 1000 / 1000 mg/kg bw/day
- NOAEL: Colloid area (thyroid HP) ([2]; over all higher-tier studies): 1000 / 1000 mg/kg bw/day
- NOAEL: Dystocia ([2]; over all higher-tier studies): 1000 / 1000 mg/kg bw/day
- NOAEL: Epididymis HP ([2]; over all higher-tier studies): 1000 / 1000 mg/kg bw/day
- NOAEL: Epididymis weight ([2]; over all higher-tier studies): 1000 / 1000 mg/kg bw/day
- NOAEL: Fertility ([2]; over all higher-tier studies): 1000 / 1000 mg/kg bw/day
- NOAEL: Foetal development ([2]; over all higher-tier studies): 1000 / 1000 mg/kg bw/day
- NOAEL: Functional observation battery ([2]; over all higher-tier studies): 1000 / 1000 mg/kg bw/day
- NOAEL: Genital abnormalities ([2]; over all higher-tier studies): 1000 / 1000 mg/kg bw/day
- NOAEL: Gestation length ([2]; over all higher-tier studies): 1000 / 1000 mg/kg bw/day
- NOAEL: Litter / pup weight ([2]; over all higher-tier studies): 1000 / 1000 mg/kg bw/day
- NOAEL: Litter size ([2]; over all higher-tier studies): 1000 / 1000 mg/kg bw/day
- NOAEL: Litter viability ([2]; over all higher-tier studies): 1000 / 1000 mg/kg bw/day
- NOAEL: Liver weight ([2]; over all higher-tier studies): 1000 / 1000 mg/kg bw/day
- NOAEL: Mammary gland HP; females ([2]; over all higher-tier studies): 1000 / 1000 mg/kg bw/day
- NOAEL: Mammary gland HP; males ([2]; over all higher-tier studies): 1000 / 1000 mg/kg bw/day
- NOAEL: Motor activity ([2]; over all higher-tier studies): 1000 / 1000 mg/kg bw/day
- NOAEL: Nipple development ([2]; over all higher-tier studies): 1000 / 1000 mg/kg bw/day
- NOAEL: No. of implantations, corpora lutea ([2]; over all higher-tier studies): 1000 / 1000 mg/kg bw/day
- NOAEL: No. of live births ([2]; over all higher-tier studies): 1000 / 1000 mg/kg bw/day
- NOAEL: No. of ovarian follicles ([2]; over all higher-tier studies): 1000 / 1000 mg/kg bw/day
- NOAEL: Oestrus cyclicity ([2]; over all higher-tier studies): 1000 / 1000 mg/kg bw/day
- NOAEL: Offspring: learning & memory ([2]; over all higher-tier studies): 1000 / 1000 mg/kg bw/day
- NOAEL: Ovary HP ([2]; over all higher-tier studies): 1000 / 1000 mg/kg bw/day
- NOAEL: Ovary weight ([2]; over all higher-tier studies): 1000 / 1000 mg/kg bw/day
- NOAEL: Oviduct HP ([2]; over all higher-tier studies): 1000 / 1000 mg/kg bw/day
- NOAEL: Pituitary HP ([2]; over all higher-tier studies): 1000 / 1000 mg/kg bw/day
- NOAEL: Pituitary weight ([2]; over all higher-tier studies): 1000 / 1000 mg/kg bw/day
- NOAEL: Postimplantation loss ([2]; over all higher-tier studies): 1000 / 1000 mg/kg bw/day
- NOAEL: Pre-implantation loss ([2]; over all higher-tier studies): 1000 / 1000 mg/kg bw/day
- NOAEL: Presence of anomalies ([2]; over all higher-tier studies): 1000 / 1000 mg/kg bw/day
- NOAEL: Prostate HP ([2]; over all higher-tier studies): 1000 / 1000 mg/kg bw/day
- NOAEL: Prostate weight ([2]; over all higher-tier studies): 1000 / 1000 mg/kg bw/day
- NOAEL: Pup development ([2]; over all higher-tier studies): 1000 / 1000 mg/kg bw/day
- NOAEL: Reproduction ([2]; over all higher-tier studies): 1000 / 1000 mg/kg bw/day
- NOAEL: Seminal vesicles HP ([2]; over all higher-tier studies): 1000 / 1000 mg/kg bw/day
- NOAEL: Seminal vesicles weight ([2]; over all higher-tier studies): 1000 / 1000 mg/kg bw/day
- NOAEL: Sperm morphology ([2]; over all higher-tier studies): 1000 / 1000 mg/kg bw/day
- NOAEL: Sperm motility ([2]; over all higher-tier studies): 1000 / 1000 mg/kg bw/day
- NOAEL: Sperm numbers ([2]; over all higher-tier studies): 1000 / 1000 mg/kg bw/day
- NOAEL: Testis HP ([2]; over all higher-tier studies): 1000 / 1000 mg/kg bw/day
- NOAEL: Testis weight ([2]; over all higher-tier studies): 1000 / 1000 mg/kg bw/day
- NOAEL: Thyroid HP ([2]; over all higher-tier studies): 1000 / 1000 mg/kg bw/day
- NOAEL: Thyroid stimulating hormone level ([2]; over all higher-tier studies): 1000 / 1000 mg/kg bw/day
- NOAEL: Thyroid weight ([2]; over all higher-tier studies): 1000 / 1000 mg/kg bw/day
- NOAEL: Time to mating ([2]; over all higher-tier studies): 1000 / 1000 mg/kg bw/day
- NOAEL: Triiodothyronine / thyroxine level ([2]; over all higher-tier studies): 1000 / 1000 mg/kg bw/day
- NOAEL: Uterus HP (with cervix) ([2]; over all higher-tier studies): 1000 / 1000 mg/kg bw/day
- NOAEL: Uterus weight (with cervix) ([2]; over all higher-tier studies): 1000 / 1000 mg/kg bw/day
- NOAEL: Vagina HP ([2]; over all higher-tier studies): 1000 / 1000 mg/kg bw/day
- NOAEL: Vaginal smears ([2]; over all higher-tier studies): 1000 / 1000 mg/kg bw/day
- concentration at 1 h ([3]; female, 500 mg/kg): 0.068 µg/mL
- concentration at 1 h ([3]; female, 1000 mg/kg): 0.0202 µg/mL
- Tmax ([3]; female, 500 mg/kg): 15 min
- AUC(0-t) ([3]; female, 500 mg/kg, AUC0-1 h): 0.291 µg·h/mL
- AUC(0-t) ([3]; female, 500 mg/kg, AUC0–t): 1.12 µg·h/mL
- Cmax ([3]; female, 500 mg/kg): 1.39 µg/mL
- Tmax ([3]; female, 1000 mg/kg): 10.2 min
- AUC(0-t) ([3]; female, 1000 mg/kg, AUC0-1 h): 0.156 µg·h/mL
- AUC(0-t) ([3]; female, 1000 mg/kg, AUC0–t): 0.317 µg·h/mL
- Cmax ([3]; female, 1000 mg/kg): 0.94 µg/mL
- concentration at 1 h ([3]; male, 500 mg/kg): 0.023 µg/mL
- concentration at 1 h ([3]; male, 1000 mg/kg): 0.0623 µg/mL
- Tmax ([3]; male, 500 mg/kg): 10.2 min
- AUC(0-t) ([3]; male, 500 mg/kg, AUC0-1 h): 0.0949 µg·h/mL
- AUC(0-t) ([3]; male, 500 mg/kg, AUC0–t): 0.15 µg·h/mL
- Cmax ([3]; male, 500 mg/kg): 0.345 µg/mL
- Tmax ([3]; male, 1000 mg/kg): 10.2 min
- AUC(0-t) ([3]; male, 1000 mg/kg, AUC0-1 h): 0.175 µg·h/mL
- AUC(0-t) ([3]; male, 1000 mg/kg, AUC0–t): 0.38 µg·h/mL
- Cmax ([3]; male, 1000 mg/kg): 0.735 µg/mL
- AUC0-1 h/AUC0–t ([3]; 500 mg/kg, female): 26%
- C1h/Cmax ([3]; 500 mg/kg, female): 4.9%
- Clast ([3]; 500 mg/kg, female): 0.136 µg/mL
- tlast ([3]; 500 mg/kg, female): 8.0 h
- AUC0-1 h/AUC0–t ([3]; 500 mg/kg, male): 63%
- C1h/Cmax ([3]; 500 mg/kg, male): 6.7%
- Clast ([3]; 500 mg/kg, male): 0.0136 µg/mL
- tlast ([3]; 500 mg/kg, male): 4.0 h
- AUC0-1 h/AUC0–t ([3]; 1000 mg/kg, female): 49%
- C1h/Cmax ([3]; 1000 mg/kg, female): 2.1%
- Clast ([3]; 1000 mg/kg, female): 0.0116 µg/mL
- tlast ([3]; 1000 mg/kg, female): 8.0 h
- AUC0-1 h/AUC0–t ([3]; 1000 mg/kg, male): 46%
- C1h/Cmax ([3]; 1000 mg/kg, male): 8.5%
- Clast ([3]; 1000 mg/kg, male): 0.0143 µg/mL
- tlast ([3]; 1000 mg/kg, male): 8.0 h
- Mutagenicity in bacteria classification [4]: Not mutagenic [c] (OECD 471; 2018)
- Mutagenicity in mammalian cells classification [5]: Not mutagenic [c] (OECD 476; 2012)
- Genetic toxicity in vivo (rats) classification [6]: Not clastogenic (read-across from MP)
